Assay results: ChEMBL document CHEMBL2021797, “Synthesis and structure-activity relationship study of antimicrotubule agents phenylahistin derivatives with a didehydropiperazine-2,5-dione structure” (J Med Chem, 2012)

Key:
HT-29 = experiment: Cytotoxicity against human HT-29 cells after 48 hrs using resazurin by microplate fluorometer analysis; assay type: functional, cell-based; conditions: HT-29, 48 h
HeLa [1] = experiment: Induction of cell cycle arrest in human HeLa cells assessed as accumulation at G0/G1 phase at 10 nM after 18 hrs by propidium iodide based flow cytometric analysis (reference value: 43.9 %); assay type: functional
[2] = Binding affinity to bovine tubulin after 1 hr by spectrofluorometric analysis; design: species or system Bos taurus
HeLa [3] = experiment: Induction of cell cycle arrest in human HeLa cells assessed as accumulation at S phase at 10 nM after 18 hrs by propidium iodide based flow cytometric analysis (reference value: 39.9 %); assay type: functional
HeLa [4] = experiment: Induction of cell cycle arrest in human HeLa cells assessed as accumulation at G2/M phase at 30 nM after 18 hrs by propidium iodide based flow cytometric analysis (reference value: 16.2 %); assay type: functional
HeLa [5] = experiment: Induction of cell cycle arrest in human HeLa cells assessed as accumulation at G0/G1 phase at 30 nM after 18 hrs by propidium iodide based flow cytometric analysis (reference value: 43.9 %); assay type: functional
HeLa [6] = experiment: Induction of cell cycle arrest in human HeLa cells assessed as accumulation at S phase at 30 nM after 18 hrs by propidium iodide based flow cytometric analysis (reference value: 39.9 %); assay type: functional
HeLa [7] = experiment: Induction of cell cycle arrest in human HeLa cells assessed as accumulation at G2/M phase at 10 nM after 18 hrs by propidium iodide based flow cytometric analysis (reference value: 16.2 %); assay type: functional
HeLa [8] = experiment: Induction of cell cycle arrest in human HeLa cells assessed as accumulation at S phase at 3 nM after 18 hrs by propidium iodide based flow cytometric analysis (reference value: 39.9 %); assay type: functional
HUVEC [9] = experiment: Induction of microtubule depolymerization in HUVEC after 30 mins by DAPI staining method; assay type: cell-based; conditions: Homo sapiens
HeLa [10] = experiment: Induction of cell cycle arrest in human HeLa cells assessed as accumulation at G0/G1 phase at 3 nM after 18 hrs by propidium iodide based flow cytometric analysis (reference value: 43.9 %); assay type: functional
HeLa [11] = experiment: Induction of cell cycle arrest in human HeLa cells assessed as accumulation at G2/M phase at 3 nM after 18 hrs by propidium iodide based flow cytometric analysis (reference value: 16.2 %); assay type: functional
HUVEC [12] = experiment: Cytotoxicity against HUVEC after 48 hrs using resazurin by microplate fluorometer analysis; assay type: cell-based; conditions: Homo sapiens
[13] = Inhibition of bovine brain tubulin polymerization by thermostatic spectrophotometer; design: species or system Bos taurus
Mus musculus = experiment: Toxicity in nu/nu mouse assessed as weight loss at 1.25 to 7.5 mg/kg, ip after 40 days; assay type: organism-based; conditions: in vivo, 960 h
HeLa [14] = experiment: Induction of cell cycle arrest in human HeLa cells assessed as accumulation at G0/G1 phase at 100 nM after 18 hrs by propidium iodide based flow cytometric analysis (reference value: 43.9 %); assay type: functional
DU-145 [15] = experiment: Antitumor activity against human DU145 cells xenografted in nu/nu mouse assessed as tumor growth inhibition at […], ip administered on day 1, 3, 5, 8 and […] measured on day 40 relative to control; assay type: functional; conditions: DU-145, ip, read-out: TGI
DU-145 [16] = conditions: Homo sapiens
HeLa [17] = experiment: Induction of cell cycle arrest in human HeLa cells assessed as accumulation at G2/M phase at 100 nM after 18 hrs by propidium iodide based flow cytometric analysis (reference value: 16.2 %); assay type: functional
HeLa [18] = experiment: Induction of cell cycle arrest in human HeLa cells assessed as accumulation at S phase at 100 nM after 18 hrs by propidium iodide based flow cytometric analysis (reference value: 39.9 %); assay type: functional
DU-145 [19] = experiment: Antitumor activity against human DU145 cells xenografted in nu/nu mouse assessed as tumor growth inhibition at 3.75 mg/kg, ip administered on day 1, 3, 5, 8 and […] measured on day 40 relative to control; assay type: functional; conditions: DU-145, ip, route intraperitoneal, read-out: TGI
DU-145 [20] = experiment: Antitumor activity against human DU145 cells xenografted in nu/nu mouse assessed as tumor growth inhibition at 7.5 mg/kg, ip administered on day 1, 3, 5, 8 and […] measured on day 40 relative to control; assay type: functional; conditions: DU-145, ip, route intraperitoneal, read-out: TGI

| SMILES | IC50 (HT-29) [µM] | Activity (HeLa [1]) [%] | Kd [2] [µM] | Activity (HeLa [3]) [%] | Activity (HeLa [4]) [%] | Activity (HeLa [5]) [%] | Activity (HeLa [6]) [%] | Activity (HeLa [7]) [%] | ED100 (HUVEC [9]) [nM] | IC50 (HUVEC [12]) [µM] | IC50 [13] [µM] | other results |
| --- | --- | --- | --- | --- | --- | --- | --- | --- | --- | --- | --- | --- |
| COc1cc(/C=c2\[nH]c(=O)/c(=C/c3nc[nH]c3C(C)(C)C)[nH]c2=O)cc(OC)c1 | 0.0454 |  |  |  |  |  |  |  |  |  |  |  |
| COc1cc2c(c(OC)c1OC)-c1ccc(OC)c(=O)cc1[C@@H](NC(C)=O)CC2 [COLCHICINE] | 0.016 | 47.5 | […] | 31.5 | 89.9 | 1.3 | 8.9 | 21 |  |  |  |  |
| COc1ccc(/C=C\c2cc(OC)c(OC)c(OC)c2)cc1O [COMBRETASTATIN A4] |  | 0.4 |  | 8.8 |  |  |  | 90.7 | 10 | 0.0024 | 0.55 | Activity (HeLa [8]): 28.1%; Activity (HeLa [10]): 34.6%; Activity (HeLa [11]): 37.4% |
| CC(C)(C)c1[nH]cnc1/C=c1\[nH]c(=O)/c(=C/c2ccccc2)[nH]c1=O [PLINABULIN] |  | 44.6 | 1 | 37.5 | 55.3 | 4.2 | 40.4 | 17.9 | 3 | 0.011 | 1.31 | Activity (Mus musculus): Non-toxic; Activity (HeLa [14]): 0%; inhibition in vivo at […] (DU-145 [15]): 29%; TGI (DU-145 [16]): Dose-dependent effect; Activity (HeLa [17]): 97.6%; Activity (HeLa [18]): 2.4%; inhibition in vivo at 3.75 mg/kg (DU-145 [19]): 38.6%; inhibition in vivo at 7.5 mg/kg (DU-145 [20]): 58.5% |
